Tests used:
CHEK1 (CHK1) = CHEK1 (CHK1) (Homo sapiens (Human), UniProt O14757); test: SelectScreen Kinase Profiling: CHEK1; type: biochemical; details: 300-350 nM
Text: (§1) Table 2 below highlights the selectivity of a representative compound of the invention against a panel of 50 kinases (assessed using the Invitrogen SelectScreen® Kinase Profiling Service).

MAP2K1 (MEK1) = MAP2K1 (MEK1) (Homo sapiens (Human), UniProt Q02750); test: SelectScreen Kinase Profiling: MAP2K1; type: biochemical; details: 300-350 nM
Text: as §1

PRKCB1 (PKC beta I) = PRKCB1 (PKC beta I) (Homo sapiens (Human), UniProt P05771); test: SelectScreen Kinase Profiling: PRKCB1; type: biochemical; details: 300-350 nM
Text: as §1

EPHA2 = EPHA2 (Homo sapiens (Human), UniProt P29317); test: SelectScreen Kinase Profiling: EPHA2; type: biochemical; details: 300-350 nM
Text: as §1

ABL1 = ABL1 (Homo sapiens (Human), UniProt P00519); test: SelectScreen Kinase Profiling: ABL1; type: biochemical; details: 300-350 nM
Text: as §1

Src [1] = details: quoted in column head, BMCL 2005 p1931; cited from earlier work
IRAK4 = IRAK4 (Homo sapiens (Human), UniProt Q9NWZ3); test: SelectScreen Kinase Profiling: IRAK4; type: biochemical; details: 300-350 nM
Text: as §1

RPS6KB1 (p70S6K) = RPS6KB1 (p70S6K) (Homo sapiens (Human), UniProt P23443); test: SelectScreen Kinase Profiling: RPS6KB1; type: biochemical; details: 300-350 nM
Text: as §1

AURKA (Aurora A) = AURKA (Aurora A) (Homo sapiens (Human), UniProt O14965); test: SelectScreen Kinase Profiling: AURKA; type: biochemical; details: 300-350 nM
Text: as §1

INSR = INSR (Homo sapiens (Human), UniProt P06213); test: SelectScreen Kinase Profiling: INSR; type: biochemical; details: 300-350 nM
Text: as §1

PRKACA (PKA) = PRKACA (PKA) (Homo sapiens (Human), UniProt P17612); test: SelectScreen Kinase Profiling: PRKACA; type: biochemical; details: 300-350 nM
Text: as §1

MAPKAPK2 = MAPKAPK2 (Homo sapiens (Human), UniProt P49137); test: SelectScreen Kinase Profiling: MAPKAPK2; type: biochemical; details: 300-350 nM
Text: as §1

BTK = BTK (Homo sapiens (Human), UniProt Q06187); test: SelectScreen Kinase Profiling: BTK; type: biochemical; details: 300-350 nM
Text: as §1

CSNK1G2 (CK1 gamma 2) = CSNK1G2 (CK1 gamma 2) (Homo sapiens (Human), UniProt P78368); test: SelectScreen Kinase Profiling: CSNK1G2; type: biochemical; details: 300-350 nM
Text: as §1

FRAP1 (mTOR) = FRAP1 (mTOR) (Homo sapiens (Human), UniProt P42345); test: SelectScreen Kinase Profiling: FRAP1; type: biochemical; details: 300-350 nM
Text: as §1

ROCK1 = ROCK1 (Homo sapiens (Human), UniProt Q13464); test: SelectScreen Kinase Profiling: ROCK1; type: biochemical; details: 300-350 nM
Text: as §1

LCK = LCK (Homo sapiens (Human), UniProt P06239); test: SelectScreen Kinase Profiling: LCK; type: biochemical; details: 300-350 nM
Text: as §1

MET (cMet) = MET (cMet) (Homo sapiens (Human), UniProt P08581); test: SelectScreen Kinase Profiling: MET; type: biochemical; details: 300-350 nM
Text: as §1

KDR (VEGFR2) = KDR (VEGFR2) (Homo sapiens (Human), UniProt P35968); test: SelectScreen Kinase Profiling: KDR; type: biochemical; details: 300-350 nM
Text: as §1

IGF1R = IGF1R (Homo sapiens (Human), UniProt P08069); test: SelectScreen Kinase Profiling: IGF1R; type: biochemical; details: 300-350 nM
Text: as §1

NTRK1 (TRKA) = NTRK1 (TRKA) (Homo sapiens (Human), UniProt P04629); test: SelectScreen Kinase Profiling: NTRK1; type: biochemical; details: 300-350 nM
Text: as §1

DYRK3 = DYRK3 (Homo sapiens (Human), UniProt O43781); test: SelectScreen Kinase Profiling: DYRK3; type: biochemical; details: 300-350 nM
Text: as §1

MAPK14 (p38 alpha) = MAPK14 (p38 alpha) (Homo sapiens (Human), UniProt Q16539); test: SelectScreen Kinase Profiling: MAPK14; type: biochemical; details: 300-350 nM
Text: as §1

KIT = KIT (Homo sapiens (Human), UniProt P10721); test: SelectScreen Kinase Profiling: KIT; type: biochemical; details: 300-350 nM
Text: as §1

GSK3B (GSK3 beta) = GSK3B (GSK3 beta) (Homo sapiens (Human), UniProt P49841); test: SelectScreen Kinase Profiling: GSK3B; type: biochemical; details: 300-350 nM
Text: as §1

ERBB2 (HER2) = ERBB2 (HER2) (Homo sapiens (Human), UniProt P04626); test: SelectScreen Kinase Profiling: ERBB2; type: biochemical; details: 300-350 nM
Text: as §1

PIM1 = PIM1 (Homo sapiens (Human), UniProt P11309); test: SelectScreen Kinase Profiling: PIM1; type: biochemical; details: 300-350 nM
Text: as §1

MAPK8 (JNK1) = MAPK8 (JNK1) (Homo sapiens (Human), UniProt P45983); test: SelectScreen Kinase Profiling: MAPK8; type: biochemical; details: 300-350 nM
Text: as §1

NEK1 = NEK1 (Homo sapiens (Human), UniProt Q96PY6); test: SelectScreen Kinase Profiling: NEK1; type: biochemical; details: 300-350 nM
Text: as §1

SYK = SYK (Homo sapiens (Human), UniProt P43405); test: SelectScreen Kinase Profiling: SYK; type: biochemical; details: 300-350 nM
Text: as §1

CSNK2A1 (CK2 alpha 1) = CSNK2A1 (CK2 alpha 1) (Homo sapiens (Human), UniProt P68400); test: SelectScreen Kinase Profiling: CSNK2A1; type: biochemical; details: 300-350 nM
Text: as §1

TEK (Tie2) = TEK (Tie2) (Homo sapiens (Human), UniProt Q02763); test: SelectScreen Kinase Profiling: TEK; type: biochemical; details: 300-350 nM
Text: as §1

MAPK1 (ERK2) = MAPK1 (ERK2) (Homo sapiens (Human), UniProt P28482); test: SelectScreen Kinase Profiling: MAPK1; type: biochemical; details: 300-350 nM
Text: as §1

PLK1 = PLK1 (Homo sapiens (Human), UniProt P53350); test: SelectScreen Kinase Profiling: PLK1; type: biochemical; details: 300-350 nM
Text: as §1

MARK2 = MARK2 (Homo sapiens (Human), UniProt Q7KZI7); test: SelectScreen Kinase Profiling: MARK2; type: biochemical; details: 300-350 nM
Text: as §1

IKBKB (IKK beta) = IKBKB (IKK beta) (Homo sapiens (Human), UniProt O14920); test: SelectScreen Kinase Profiling: IKBKB; type: biochemical; details: 300-350 nM
Text: as §1

AKT1 (PKB alpha) = AKT1 (PKB alpha) (Homo sapiens (Human), UniProt P31749); test: SelectScreen Kinase Profiling: AKT1; type: biochemical; details: 300-350 nM
Text: as §1

JAK3 = JAK3 (Homo sapiens (Human), UniProt P52333); test: SelectScreen Kinase Profiling: JAK3; type: biochemical; details: 300-350 nM
Text: as §1

RET = RET (Homo sapiens (Human), UniProt P07949); test: SelectScreen Kinase Profiling: RET; type: biochemical; details: 300-350 nM
Text: as §1

MAP4K4 (HGK) = MAP4K4 (HGK) (Homo sapiens (Human), UniProt O95819); test: SelectScreen Kinase Profiling: MAP4K4; type: biochemical; details: 300-350 nM
Text: as §1

ACVR1B (ALK4) = ACVR1B (ALK4) (Homo sapiens (Human), UniProt P36896); test: SelectScreen Kinase Profiling: ACVR1B; type: biochemical; details: 300-350 nM
Text: as §1

FGFR1 = FGFR1 (Homo sapiens (Human), UniProt P11362); test: SelectScreen Kinase Profiling: FGFR1; type: biochemical; details: 300-350 nM
Text: as §1

Src [2] = molecular target: Src (Homo sapiens (Human), UniProt P12931); test: SelectScreen Kinase Profiling: SRC; type: biochemical; details: 300-350 nM
PHKG2 = PHKG2 (Homo sapiens (Human), UniProt P15735); test: SelectScreen Kinase Profiling: PHKG2; type: biochemical; details: 300-350 nM
Text: as §1

FLT3 = FLT3 (Homo sapiens (Human), UniProt P36888); test: SelectScreen Kinase Profiling: FLT3; type: biochemical; details: 300-350 nM
Text: as §1

PAK4 = PAK4 (Homo sapiens (Human), UniProt O96013); test: SelectScreen Kinase Profiling: PAK4; type: biochemical; details: 300-350 nM
Text: as §1

Sequence of ACVR1B (ALK4) (P36896 24-505): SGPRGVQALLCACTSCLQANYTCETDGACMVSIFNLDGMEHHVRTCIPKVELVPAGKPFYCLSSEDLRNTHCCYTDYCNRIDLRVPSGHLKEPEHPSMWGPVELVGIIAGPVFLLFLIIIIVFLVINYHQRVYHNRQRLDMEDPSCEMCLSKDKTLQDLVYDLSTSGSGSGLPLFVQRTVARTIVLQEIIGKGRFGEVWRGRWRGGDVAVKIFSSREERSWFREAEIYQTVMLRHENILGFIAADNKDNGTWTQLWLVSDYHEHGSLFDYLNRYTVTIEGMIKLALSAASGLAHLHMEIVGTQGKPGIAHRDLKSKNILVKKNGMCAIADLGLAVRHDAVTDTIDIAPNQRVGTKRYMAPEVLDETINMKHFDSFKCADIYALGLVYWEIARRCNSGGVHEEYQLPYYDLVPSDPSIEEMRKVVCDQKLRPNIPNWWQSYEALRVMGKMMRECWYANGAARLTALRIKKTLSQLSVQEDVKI
Sequence of IKBKB (IKK beta) (O14920 whole entry): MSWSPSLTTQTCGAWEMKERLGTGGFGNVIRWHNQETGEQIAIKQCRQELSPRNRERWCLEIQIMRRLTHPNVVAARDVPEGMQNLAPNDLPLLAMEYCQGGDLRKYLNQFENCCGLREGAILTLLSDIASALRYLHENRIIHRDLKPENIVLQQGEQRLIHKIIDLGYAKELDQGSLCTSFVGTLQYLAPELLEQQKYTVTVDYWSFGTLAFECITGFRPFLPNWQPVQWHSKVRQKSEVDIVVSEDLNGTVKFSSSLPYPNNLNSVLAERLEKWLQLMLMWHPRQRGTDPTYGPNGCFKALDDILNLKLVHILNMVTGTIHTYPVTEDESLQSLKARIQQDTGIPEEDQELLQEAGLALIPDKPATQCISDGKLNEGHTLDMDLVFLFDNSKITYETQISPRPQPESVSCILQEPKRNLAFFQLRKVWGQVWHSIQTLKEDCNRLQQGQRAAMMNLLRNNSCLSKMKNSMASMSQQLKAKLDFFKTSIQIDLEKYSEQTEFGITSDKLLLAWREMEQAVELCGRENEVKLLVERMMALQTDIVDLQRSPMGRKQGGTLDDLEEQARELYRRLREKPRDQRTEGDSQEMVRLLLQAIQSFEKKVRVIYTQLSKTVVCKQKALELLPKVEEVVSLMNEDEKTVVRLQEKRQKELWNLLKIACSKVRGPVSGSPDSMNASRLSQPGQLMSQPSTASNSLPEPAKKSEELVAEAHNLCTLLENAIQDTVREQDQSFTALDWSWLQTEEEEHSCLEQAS
Sequence of IGF1R (P08069 31-1367): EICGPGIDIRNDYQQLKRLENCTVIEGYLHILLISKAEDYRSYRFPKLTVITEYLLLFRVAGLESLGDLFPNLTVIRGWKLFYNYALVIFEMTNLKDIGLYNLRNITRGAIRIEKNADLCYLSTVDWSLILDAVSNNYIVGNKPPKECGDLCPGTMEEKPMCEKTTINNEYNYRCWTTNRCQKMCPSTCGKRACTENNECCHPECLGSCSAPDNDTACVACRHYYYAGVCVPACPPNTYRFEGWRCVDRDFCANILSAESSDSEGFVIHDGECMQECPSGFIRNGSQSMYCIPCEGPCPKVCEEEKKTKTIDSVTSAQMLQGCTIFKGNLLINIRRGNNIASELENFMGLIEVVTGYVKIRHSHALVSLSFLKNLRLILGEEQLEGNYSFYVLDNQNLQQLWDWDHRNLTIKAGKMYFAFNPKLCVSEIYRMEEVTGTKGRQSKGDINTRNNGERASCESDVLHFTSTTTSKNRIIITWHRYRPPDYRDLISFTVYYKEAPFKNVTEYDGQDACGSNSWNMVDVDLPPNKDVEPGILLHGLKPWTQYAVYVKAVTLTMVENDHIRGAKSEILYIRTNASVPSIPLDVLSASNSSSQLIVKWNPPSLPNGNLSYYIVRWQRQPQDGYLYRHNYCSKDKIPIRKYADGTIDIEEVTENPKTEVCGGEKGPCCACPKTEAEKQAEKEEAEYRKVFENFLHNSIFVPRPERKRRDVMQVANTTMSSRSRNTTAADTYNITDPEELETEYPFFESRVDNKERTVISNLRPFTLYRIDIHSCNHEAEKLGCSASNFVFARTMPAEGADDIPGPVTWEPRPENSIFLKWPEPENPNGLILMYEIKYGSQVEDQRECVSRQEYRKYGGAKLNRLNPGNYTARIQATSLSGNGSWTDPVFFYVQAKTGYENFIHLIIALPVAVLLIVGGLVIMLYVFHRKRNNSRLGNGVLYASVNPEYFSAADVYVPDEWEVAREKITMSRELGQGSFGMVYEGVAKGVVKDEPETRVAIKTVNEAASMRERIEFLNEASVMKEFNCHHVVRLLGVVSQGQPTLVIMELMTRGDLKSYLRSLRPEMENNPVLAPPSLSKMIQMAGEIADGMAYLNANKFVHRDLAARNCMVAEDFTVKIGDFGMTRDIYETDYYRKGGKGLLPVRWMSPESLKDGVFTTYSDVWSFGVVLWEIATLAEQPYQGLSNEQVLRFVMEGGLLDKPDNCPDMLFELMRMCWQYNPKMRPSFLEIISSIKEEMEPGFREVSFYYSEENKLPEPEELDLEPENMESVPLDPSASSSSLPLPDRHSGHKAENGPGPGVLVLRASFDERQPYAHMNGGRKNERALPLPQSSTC
Sequence of LCK (P06239 whole entry): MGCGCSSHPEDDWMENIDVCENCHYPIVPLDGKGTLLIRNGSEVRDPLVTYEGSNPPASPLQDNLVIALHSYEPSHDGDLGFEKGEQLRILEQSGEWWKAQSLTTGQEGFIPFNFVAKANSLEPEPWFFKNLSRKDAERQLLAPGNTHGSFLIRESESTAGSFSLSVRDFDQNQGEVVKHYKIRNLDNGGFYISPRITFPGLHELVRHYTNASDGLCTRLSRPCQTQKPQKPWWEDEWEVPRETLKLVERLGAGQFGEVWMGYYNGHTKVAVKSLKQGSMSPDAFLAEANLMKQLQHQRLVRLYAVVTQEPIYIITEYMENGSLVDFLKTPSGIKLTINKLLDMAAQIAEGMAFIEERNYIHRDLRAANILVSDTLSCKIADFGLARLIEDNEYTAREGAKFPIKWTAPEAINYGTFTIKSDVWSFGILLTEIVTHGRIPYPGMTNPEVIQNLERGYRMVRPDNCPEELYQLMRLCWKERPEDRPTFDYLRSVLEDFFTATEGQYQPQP
Sequence of TEK (Tie2) (Q02763 23-1124): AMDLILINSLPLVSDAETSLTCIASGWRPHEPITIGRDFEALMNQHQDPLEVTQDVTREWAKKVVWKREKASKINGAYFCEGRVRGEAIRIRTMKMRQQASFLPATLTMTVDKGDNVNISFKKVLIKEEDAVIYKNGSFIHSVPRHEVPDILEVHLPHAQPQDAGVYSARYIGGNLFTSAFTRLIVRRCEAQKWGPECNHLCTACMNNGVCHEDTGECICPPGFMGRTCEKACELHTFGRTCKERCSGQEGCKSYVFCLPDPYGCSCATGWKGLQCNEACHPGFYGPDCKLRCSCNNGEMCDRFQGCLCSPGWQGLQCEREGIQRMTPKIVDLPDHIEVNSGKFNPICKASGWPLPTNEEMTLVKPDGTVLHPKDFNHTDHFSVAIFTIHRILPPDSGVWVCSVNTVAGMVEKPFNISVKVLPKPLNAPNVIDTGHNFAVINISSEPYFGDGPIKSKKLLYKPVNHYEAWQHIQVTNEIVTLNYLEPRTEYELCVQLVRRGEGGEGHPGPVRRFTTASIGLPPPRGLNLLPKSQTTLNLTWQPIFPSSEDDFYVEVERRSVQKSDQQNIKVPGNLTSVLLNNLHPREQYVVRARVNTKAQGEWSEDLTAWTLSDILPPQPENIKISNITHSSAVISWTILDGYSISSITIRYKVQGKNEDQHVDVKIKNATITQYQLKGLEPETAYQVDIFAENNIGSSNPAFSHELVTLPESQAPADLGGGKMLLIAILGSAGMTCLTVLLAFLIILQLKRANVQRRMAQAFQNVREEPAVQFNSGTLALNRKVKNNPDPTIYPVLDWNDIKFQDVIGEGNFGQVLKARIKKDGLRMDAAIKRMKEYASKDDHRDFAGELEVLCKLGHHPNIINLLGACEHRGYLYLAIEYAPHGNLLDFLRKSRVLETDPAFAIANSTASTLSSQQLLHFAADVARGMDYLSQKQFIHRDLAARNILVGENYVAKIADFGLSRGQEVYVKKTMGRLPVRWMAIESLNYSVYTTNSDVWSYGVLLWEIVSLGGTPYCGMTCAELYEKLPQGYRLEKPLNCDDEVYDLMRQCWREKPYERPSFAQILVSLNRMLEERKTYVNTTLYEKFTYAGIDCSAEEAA
Sequence of CHEK1 (CHK1) (O14757 whole entry): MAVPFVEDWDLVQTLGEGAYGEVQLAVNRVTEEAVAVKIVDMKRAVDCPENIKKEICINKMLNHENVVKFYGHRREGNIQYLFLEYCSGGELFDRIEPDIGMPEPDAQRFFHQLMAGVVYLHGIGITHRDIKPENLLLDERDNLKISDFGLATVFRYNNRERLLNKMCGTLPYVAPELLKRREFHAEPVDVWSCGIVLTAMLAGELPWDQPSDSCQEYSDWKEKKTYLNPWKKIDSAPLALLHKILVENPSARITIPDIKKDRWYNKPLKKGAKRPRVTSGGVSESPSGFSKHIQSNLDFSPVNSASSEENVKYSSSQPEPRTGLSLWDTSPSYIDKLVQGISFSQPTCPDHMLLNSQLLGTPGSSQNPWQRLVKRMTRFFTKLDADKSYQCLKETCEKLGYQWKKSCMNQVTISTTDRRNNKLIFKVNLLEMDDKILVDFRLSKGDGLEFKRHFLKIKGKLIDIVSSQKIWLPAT
Sequence of MAPKAPK2 (P49137 whole entry): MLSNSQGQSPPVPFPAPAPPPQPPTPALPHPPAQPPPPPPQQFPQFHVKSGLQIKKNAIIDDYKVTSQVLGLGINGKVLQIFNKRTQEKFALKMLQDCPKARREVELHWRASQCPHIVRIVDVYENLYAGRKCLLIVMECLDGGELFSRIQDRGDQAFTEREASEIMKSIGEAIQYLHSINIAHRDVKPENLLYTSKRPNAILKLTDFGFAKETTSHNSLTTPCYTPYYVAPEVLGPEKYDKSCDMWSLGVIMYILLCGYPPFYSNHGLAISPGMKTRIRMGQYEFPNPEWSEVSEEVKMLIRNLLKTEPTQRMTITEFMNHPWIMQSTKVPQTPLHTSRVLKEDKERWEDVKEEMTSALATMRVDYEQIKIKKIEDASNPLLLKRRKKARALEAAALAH

## CCN(CC)CCOc1ccc(Nc2ncc3cc(-c4c(Cl)cccc4Cl)c(=O)n(C)c3n2)cc1 [Compound 1 BMCL, 2005, p1931, reference compound]
CHEK1 (CHK1)
  Inhibition CHEK1 (CHK1): − (Inhibition <75% @ 300-350 nM)
MAP2K1 (MEK1)
  Inhibition MAP2K1 (MEK1): − (Inhibition <75% @ 300-350 nM)
PRKCB1 (PKC beta I)
  Inhibition PRKCB1 (PKC beta I): − (Inhibition <75% @ 300-350 nM)
EPHA2
  Inhibition EPHA2: + (Inhibition >75% at 300-350 nM)
ABL1
  Inhibition ABL1: + (Inhibition >75% at 300-350 nM)
Src [1]
  IC50: 6 nM
IRAK4
  Inhibition IRAK4: − (Inhibition <75% @ 300-350 nM)
RPS6KB1 (p70S6K)
  Inhibition RPS6KB1 (p70S6K): − (Inhibition <75% @ 300-350 nM)
AURKA (Aurora A)
  Inhibition AURKA (Aurora A): − (Inhibition <75% @ 300-350 nM)
INSR
  Inhibition INSR: − (Inhibition <75% @ 300-350 nM)
PRKACA (PKA)
  Inhibition PRKACA (PKA): − (Inhibition <75% @ 300-350 nM)
MAPKAPK2
  Inhibition MAPKAPK2: − (Inhibition <75% @ 300-350 nM)
BTK
  Inhibition BTK: + (Inhibition >75% at 300-350 nM)
CSNK1G2 (CK1 gamma 2)
  Inhibition CSNK1G2 (CK1 gamma 2): − (Inhibition <75% @ 300-350 nM)
FRAP1 (mTOR)
  Inhibition FRAP1 (mTOR): − (Inhibition <75% @ 300-350 nM)
ROCK1
  Inhibition ROCK1: − (Inhibition <75% @ 300-350 nM)
LCK
  Inhibition LCK: + (Inhibition >75% at 300-350 nM)
MET (cMet)
  Inhibition MET (cMet): − (Inhibition <75% @ 300-350 nM)
KDR (VEGFR2)
  Inhibition KDR (VEGFR2): + (Inhibition >75% at 300-350 nM)
IGF1R
  Inhibition IGF1R: − (Inhibition <75% @ 300-350 nM)
NTRK1 (TRKA)
  Inhibition NTRK1 (TRKA): − (Inhibition <75% @ 300-350 nM)
DYRK3
  Inhibition DYRK3: − (Inhibition <75% @ 300-350 nM)
MAPK14 (p38 alpha)
  Inhibition MAPK14 (p38 alpha): + (Inhibition >75% at 300-350 nM)
KIT
  Inhibition KIT: + (Inhibition >75% at 300-350 nM)
GSK3B (GSK3 beta)
  Inhibition GSK3B (GSK3 beta): − (Inhibition <75% @ 300-350 nM)
ERBB2 (HER2)
  Inhibition ERBB2 (HER2): − (Inhibition <75% @ 300-350 nM)
PIM1
  Inhibition PIM1: − (Inhibition <75% @ 300-350 nM)
MAPK8 (JNK1)
  Inhibition MAPK8 (JNK1): − (Inhibition <75% @ 300-350 nM)
NEK1
  Inhibition NEK1: − (Inhibition <75% @ 300-350 nM)
SYK
  Inhibition SYK: − (Inhibition <75% @ 300-350 nM)
CSNK2A1 (CK2 alpha 1)
  Inhibition CSNK2A1 (CK2 alpha 1): − (Inhibition <75% @ 300-350 nM)
TEK (Tie2)
  Inhibition TEK (Tie2): − (Inhibition <75% @ 300-350 nM)
MAPK1 (ERK2)
  Inhibition MAPK1 (ERK2): − (Inhibition <75% @ 300-350 nM)
PLK1
  Inhibition PLK1: − (Inhibition <75% @ 300-350 nM)
MARK2
  Inhibition MARK2: + (Inhibition >75% at 300-350 nM)
IKBKB (IKK beta)
  Inhibition IKBKB (IKK beta): − (Inhibition <75% @ 300-350 nM)
AKT1 (PKB alpha)
  Inhibition AKT1 (PKB alpha): − (Inhibition <75% @ 300-350 nM)
JAK3
  Inhibition JAK3: + (Inhibition >75% at 300-350 nM)
RET
  Inhibition RET: + (Inhibition >75% at 300-350 nM)
MAP4K4 (HGK)
  Inhibition MAP4K4 (HGK): + (Inhibition >75% at 300-350 nM)
ACVR1B (ALK4)
  Inhibition ACVR1B (ALK4): + (Inhibition >75% at 300-350 nM)
FGFR1
  Inhibition FGFR1: + (Inhibition >75% at 300-350 nM)
Src [2]
  Inhibition SRC: + (Inhibition >75% at 300-350 nM)
PHKG2
  Inhibition PHKG2: − (Inhibition <75% @ 300-350 nM)
FLT3
  Inhibition FLT3: + (Inhibition >75% at 300-350 nM)
PAK4
  Inhibition PAK4: − (Inhibition <75% @ 300-350 nM)
